{"source": "patent US12162890B2", "about": "(Novartis AG, priority 2015, dated 2024)", "data": [{"target": "HEK293 cells with stable expression of the GRIN1 gene and tetracycline-inducible expression of the GRIN2B gene (NMDA receptor, NR2B) (Homo sapiens, UniProt Q13224)", "sequence (Q13224 27-1484, other chains not shown)": "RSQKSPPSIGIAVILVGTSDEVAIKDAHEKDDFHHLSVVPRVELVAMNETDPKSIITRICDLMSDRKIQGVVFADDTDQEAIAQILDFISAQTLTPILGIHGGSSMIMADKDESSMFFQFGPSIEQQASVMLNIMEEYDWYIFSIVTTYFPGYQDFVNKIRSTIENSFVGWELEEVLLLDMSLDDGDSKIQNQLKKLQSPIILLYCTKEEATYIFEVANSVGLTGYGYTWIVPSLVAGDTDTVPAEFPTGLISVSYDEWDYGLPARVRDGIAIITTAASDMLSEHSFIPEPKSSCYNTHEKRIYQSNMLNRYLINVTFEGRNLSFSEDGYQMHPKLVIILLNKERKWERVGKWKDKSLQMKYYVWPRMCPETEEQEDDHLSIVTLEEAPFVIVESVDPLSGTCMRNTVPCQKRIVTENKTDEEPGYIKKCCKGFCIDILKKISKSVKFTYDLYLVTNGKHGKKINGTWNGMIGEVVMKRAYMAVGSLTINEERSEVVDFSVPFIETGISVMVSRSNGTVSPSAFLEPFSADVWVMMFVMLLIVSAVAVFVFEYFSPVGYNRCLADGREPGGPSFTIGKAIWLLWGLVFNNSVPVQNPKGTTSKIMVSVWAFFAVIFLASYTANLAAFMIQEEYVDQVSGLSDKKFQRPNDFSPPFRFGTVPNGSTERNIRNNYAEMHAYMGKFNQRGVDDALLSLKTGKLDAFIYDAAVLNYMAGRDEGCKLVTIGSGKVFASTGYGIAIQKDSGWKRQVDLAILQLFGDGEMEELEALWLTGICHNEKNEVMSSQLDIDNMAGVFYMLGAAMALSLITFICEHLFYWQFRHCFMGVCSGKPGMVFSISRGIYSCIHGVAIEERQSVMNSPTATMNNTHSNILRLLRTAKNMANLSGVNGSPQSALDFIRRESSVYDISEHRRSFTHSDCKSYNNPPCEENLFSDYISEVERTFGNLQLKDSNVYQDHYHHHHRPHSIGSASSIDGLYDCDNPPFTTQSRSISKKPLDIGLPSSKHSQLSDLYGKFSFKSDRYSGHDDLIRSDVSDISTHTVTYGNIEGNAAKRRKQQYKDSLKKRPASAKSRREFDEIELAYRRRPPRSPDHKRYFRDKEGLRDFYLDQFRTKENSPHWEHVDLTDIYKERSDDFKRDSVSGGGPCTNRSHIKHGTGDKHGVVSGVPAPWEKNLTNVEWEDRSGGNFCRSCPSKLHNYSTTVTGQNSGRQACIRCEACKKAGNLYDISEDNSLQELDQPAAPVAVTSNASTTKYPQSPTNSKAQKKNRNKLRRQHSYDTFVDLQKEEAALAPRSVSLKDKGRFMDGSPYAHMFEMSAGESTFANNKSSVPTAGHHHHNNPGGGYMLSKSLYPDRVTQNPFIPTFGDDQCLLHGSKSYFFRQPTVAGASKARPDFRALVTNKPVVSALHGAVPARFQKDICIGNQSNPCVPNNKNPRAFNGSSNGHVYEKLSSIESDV", "experiment": "Fluo-8 Ca2+ flux assay: reversal of Ro 25-6981-mediated suppression of the Ca2+ response to co-agonist (glutamate/glycine); also: test concentration or dose not given here", "assay_type": "cell-based", "conditions": "reversal of the Ro 25-6981 suppression of the Ca2+ response to co-agonist (glutamate/glycine)", "units": {"Response Recovered (%)": "%"}, "values": [{"smiles": "CCC1(F)CN(C(=O)Cn2ccn3ccc(-c4ccc(F)c(Cl)c4)c3c2=O)C1", "note": "[Example 400, 8-(3-chloro-4-fluorophenyl)-2-(2-(3-ethyl-3-fluoroazetidin-1-yl)-2-oxoethyl)pyrrolo[1,2-a]pyrazin-1(2H)-one]", "Response Recovered (%)": 97}, {"smiles": "CC1(F)CN(C(=O)Cn2ccn3ccc(-c4ccc(F)c(C(F)(F)F)c4)c3c2=O)C1", "note": "[Example 401, 8-(4-fluoro-3-(trifluoromethyl)phenyl)-2-(2-(3-fluoro-3-methylazetidin-1-yl)-2-oxoethyl)pyrrolo[1,2-a]pyrazin-1(2H)-one]", "Response Recovered (%)": 160}, {"smiles": "O=C(Cn1ccn2ccc(-c3ccc(F)c(Cl)c3)c2c1=O)N1CC(F)(CF)C1", "note": "[Example 402, 8-(3-chloro-4-fluorophenyl)-2-(2-(3-fluoro-3-(fluoromethyl)azetidin-1-yl)-2-oxoethyl)pyrrolo[1,2-a]pyrazin-1(2H)-one]", "Response Recovered (%)": 130}, {"smiles": "O=C(Cn1ccn2ccc(-c3ccc(Cl)c(Cl)c3)c2c1=O)N1CC(F)(CF)C1", "note": "[Example 403, 8-(3,4-dichlorophenyl)-2-(2-(3-fluoro-3-(fluoromethyl)azetidin-1-yl)-2-oxoethyl)pyrrolo[1,2-a]pyrazin-1(2H)-one]", "Response Recovered (%)": 130}, {"smiles": "CC1(F)CN(C(=O)Cn2ccn3ccc(-c4cnc(Cl)c(Cl)c4)c3c2=O)C1", "note": "[Example 404, 8-(5,6-dichloropyridin-3-yl)-2-(2-(3-fluoro-3-methylazetidin-1-yl)-2-oxoethyl)pyrrolo[1,2-a]pyrazin-1(2H)-one]", "Response Recovered (%)": 58}, {"smiles": "CCC1(F)CN(C(=O)Cn2ccn3ccc(-c4cnc(Cl)c(Cl)c4)c3c2=O)C1", "note": "[Example 405, 8-(5,6-dichloropyridin-3-yl)-2-(2-(3-ethyl-3-fluoroazetidin-1-yl)-2-oxoethyl)pyrrolo[1,2-a]pyrazin-1(2H)-one]", "Response Recovered (%)": 61}, {"smiles": "O=C(Cn1ccn2ccc(-c3cnc(Cl)c(Cl)c3)c2c1=O)N1CC(F)(CF)C1", "note": "[Example 406, 8-(5,6-dichloropyridin-3-yl)-2-(2-(3-fluoro-3-(fluoromethyl)azetidin-1-yl)-2-oxoethyl)pyrrolo[1,2-a]pyrazin-1(2H)-one]", "Response Recovered (%)": 85}, {"smiles": "O=C(Cn1ccn2ccc(-c3ccc(F)c(C(F)(F)F)c3)c2c1=O)N1CC(F)(CF)C1", "note": "[Example 407, 2-(2-(3-fluoro-3-(fluoromethyl)azetidin-1-yl)-2-oxoethyl)-8-(4-fluoro-3-(trifluoromethyl)phenyl)pyrrolo[1,2-a]pyrazin-1(2H)-one]", "Response Recovered (%)": 130}, {"smiles": "Cc1cc(-c2ccn3ccn(CC(=O)N4CC(C)(F)C4)c(=O)c23)cnc1Cl", "note": "[Example 408, 8-(6-chloro-5-methylpyridin-3-yl)-2-(2-(3-fluoro-3-methylazetidin-1-yl)-2-oxoethyl)pyrrolo[1,2-a]pyrazin-1(2H)-one]", "Response Recovered (%)": 51}, {"smiles": "Cc1cc(-c2ccn3ccn(CC(=O)N4CC(F)(CF)C4)c(=O)c23)cnc1Cl", "note": "[Example 409, 8-(6-chloro-5-methylpyridin-3-yl)-2-(2-(3-fluoro-3-(fluoromethyl)azetidin-1-yl)-2-oxoethyl)pyrrolo[1,2-a]pyrazin-1(2H)-one]", "Response Recovered (%)": 33}, {"smiles": "CCC1(F)CN(C(=O)Cn2ccn3ccc(-c4cnc(Cl)c(C)c4)c3c2=O)C1", "note": "[Example 410, 8-(6-chloro-5-methylpyridin-3-yl)-2-(2-(3-ethyl-3-fluoroazetidin-1-yl)-2-oxoethyl)pyrrolo[1,2-a]pyrazin-1(2H)-one]", "Response Recovered (%)": 34}, {"smiles": "Cc1cn(CC(=O)N2CCC(F)C2)c(=O)c2c(-c3ccc(F)c(C(F)(F)F)c3)ccn12", "note": "(centres unmarked) [Example 411, 8-(4-fluoro-3-(trifluoromethyl)phenyl)-2-(2-(3-fluoropyrrolidin-1-yl)-2-oxoethyl)-4-methylpyrrolo[1,2-a]pyrazin-1(2H)-one]", "Response Recovered (%)": 59}, {"smiles": "Cc1cn(CC(=O)N2CCC(F)C2)c(=O)c2c(-c3ccc(F)c(C(F)(F)F)c3)cc(Br)n12", "note": "(centres unmarked) [Example 412, 6-bromo-8-(4-fluoro-3-(trifluoromethyl)phenyl)-2-(2-(3-fluoropyrrolidin-1-yl)-2-oxoethyl)-4-methylpyrrolo[1,2-a]pyrazin-1(2H)-one]", "Response Recovered (%)": 38}, {"smiles": "Cc1cn(CC(=O)N2CCC(F)C2)c(=O)c2c(-c3ccc(Cl)c(Cl)c3)ccn12", "note": "(centres unmarked) [Example 413, 8-(3,4-dichlorophenyl)-2-(2-(3-fluoropyrrolidin-1-yl)-2-oxoethyl)-4-methylpyrrolo[1,2-a]pyrazin-1(2H)-one]", "Response Recovered (%)": 43}, {"smiles": "Cc1cn(CC(=O)N2CCC(F)C2)c(=O)c2c(-c3ccc(F)c(Cl)c3)ccn12", "note": "(centres unmarked) [Example 414, 8-(3-chloro-4-fluorophenyl)-2-(2-(3-fluoropyrrolidin-1-yl)-2-oxoethyl)-4-methylpyrrolo[1,2-a]pyrazin-1(2H)-one]", "Response Recovered (%)": 112}, {"smiles": "Cc1cn(CC(=O)N2CCC(F)C2)c(=O)c2c(-c3ccc(F)c(Cl)c3)cc(Br)n12", "note": "(centres unmarked) [Example 415, 6-bromo-8-(3-chloro-4-fluorophenyl)-2-(2-(3-fluoropyrrolidin-1-yl)-2-oxoethyl)-4-methylpyrrolo[1,2-a]pyrazin-1(2H)-one]", "Response Recovered (%)": 52}, {"smiles": "Cc1cn(CC(=O)N2CC(C)(F)C2)c(=O)c2c(-c3ccc(F)c(Cl)c3)ccn12", "note": "[Example 416, 8-(3-chloro-4-fluorophenyl)-2-(2-(3-fluoro-3-methylazetidin-1-yl)-2-oxoethyl)-4-methylpyrrolo[1,2-a]pyrazin-1(2H)-one]", "Response Recovered (%)": 110}, {"smiles": "Cc1cn(CC(=O)N2CC(F)(F)C2)c(=O)c2c(-c3ccc(F)c(Cl)c3)ccn12", "note": "[Example 417, 8-(3-chloro-4-fluorophenyl)-2-(2-(3,3-difluoroazetidin-1-yl)-2-oxoethyl)-4-methylpyrrolo[1,2-a]pyrazin-1(2H)-one]", "Response Recovered (%)": 20}, {"smiles": "CCC1(F)CN(C(=O)Cn2cc(C)n3ccc(-c4ccc(F)c(Cl)c4)c3c2=O)C1", "note": "[Example 418, 8-(3-chloro-4-fluorophenyl)-2-(2-(3-ethyl-3-fluoroazetidin-1-yl)-2-oxoethyl)-4-methylpyrrolo[1,2-a]pyrazin-1(2H)-one]", "Response Recovered (%)": 74}, {"smiles": "Cc1cn(CC(=O)N2CC(C)(F)C2)c(=O)c2c(-c3ccc(Cl)c(Cl)c3)ccn12", "note": "[Example 419, 8-(3,4-dichlorophenyl)-2-(2-(3-fluoro-3-methylazetidin-1-yl)-2-oxoethyl)-4-methylpyrrolo[1,2-a]pyrazin-1(2H)-one]", "Response Recovered (%)": 110}, {"smiles": "Cc1cn(CC(=O)N2CC(C)(F)C2)c(=O)c2c(-c3cnc(Cl)c(Cl)c3)ccn12", "note": "[Example 420, 8-(5,6-dichloropyridin-3-yl)-2-(2-(3-fluoro-3-methylazetidin-1-yl)-2-oxoethyl)-4-methylpyrrolo[1,2-a]pyrazin-1(2H)-one]", "Response Recovered (%)": 69}, {"smiles": "Cc1cn(CC(=O)N2CC(F)(CF)C2)c(=O)c2c(-c3cnc(Cl)c(Cl)c3)ccn12", "note": "[Example 421, 8-(5,6-dichloropyridin-3-yl)-2-(2-(3-fluoro-3-(fluoromethyl)azetidin-1-yl)-2-oxoethyl)-4-methylpyrrolo[1,2-a]pyrazin-1(2H)-one]", "Response Recovered (%)": 92}, {"smiles": "CCC1(F)CN(C(=O)Cn2cc(C)n3ccc(-c4cnc(Cl)c(Cl)c4)c3c2=O)C1", "note": "[Example 422, 8-(5,6-dichloropyridin-3-yl)-2-(2-(3-ethyl-3-fluoroazetidin-1-yl)-2-oxoethyl)-4-methylpyrrolo[1,2-a]pyrazin-1(2H)-one]", "Response Recovered (%)": 29}, {"smiles": "O=C(Cn1ccn2c(Br)cc(-c3ccc(F)c(C(F)(F)F)c3)c2c1=O)N1CCC(F)C1", "note": "(centres unmarked) [Example 423, 6-bromo-8-(4-fluoro-3-(trifluoromethyl)phenyl)-2-(2-(3-fluoropyrrolidin-1-yl)-2-oxoethyl)pyrrolo[1,2-a]pyrazin-1(2H)-one]", "Response Recovered (%)": 72}, {"smiles": "CC1(F)CN(C(=O)Cn2cnn3cnc(-c4ccc(F)c(Cl)c4)c3c2=O)C1", "note": "[Example 424, 5-(3-chloro-4-fluorophenyl)-3-(2-(3-fluoro-3-methylazetidin-1-yl)-2-oxoethyl)imidazo[5,1-f][1,2,4]triazin-4(3H)-one]", "Response Recovered (%)": 0.55}, {"smiles": "CC1(F)CN(C(=O)Cn2cnn3cnc(-c4ccc(Cl)c(Cl)c4)c3c2=O)C1", "note": "[Example 425, 5-(3,4-dichlorophenyl)-3-(2-(3-fluoro-3-methylazetidin-1-yl)-2-oxoethyl)imidazo[5,1-f][1,2,4]triazin-4(3H)-one]", "Response Recovered (%)": 27}, {"smiles": "Cc1nc(-c2ccc(F)c(Cl)c2)c2c(=O)n(CC(=O)N3CC(C)(F)C3)ccn12", "note": "[Example 426, 1-(3-chloro-4-fluorophenyl)-7-(2-(3-fluoro-3-methylazetidin-1-yl)-2-oxoethyl)-3-methylimidazo[1,5-a]pyrazin-8(7H)-one]", "Response Recovered (%)": 30}, {"smiles": "Cc1nc(-c2ccc(F)c(C(F)(F)F)c2)c2c(=O)n(CC(=O)N3CCC(F)C3)ccn12", "note": "(centres unmarked) [Example 427, 1-(4-fluoro-3-(trifluoromethyl)phenyl)-7-(2-(3-fluoropyrrolidin-1-yl)-2-oxoethyl)-3-methylimidazo[1,5-a]pyrazin-8(7H)-one]", "Response Recovered (%)": 19}, {"smiles": "Cc1nc(-c2ccc(F)c(Cl)c2)c2c(=O)n(CC(=O)N3CCC(F)C3)ccn12", "note": "(centres unmarked) [Example 428, 1-(3-chloro-4-fluorophenyl)-7-(2-(3-fluoropyrrolidin-1-yl)-2-oxoethyl)-3-methylimidazo[1,5-a]pyrazin-8(7H)-one]", "Response Recovered (%)": 18}, {"smiles": "Cc1nc(-c2ccc(Cl)c(Cl)c2)c2c(=O)n(CC(=O)N3CCC(F)C3)ccn12", "note": "(centres unmarked) [Example 429, 1-(3,4-dichlorophenyl)-7-(2-(3-fluoropyrrolidin-1-yl)-2-oxoethyl)-3-methylimidazo[1,5-a]pyrazin-8(7H)-one]", "Response Recovered (%)": 11}, {"smiles": "Cc1nc(-c2ccc(F)c(Cl)c2)c2c(=O)n(CC(=O)N3CC(F)(F)C3)ccn12", "note": "[Example 430, 1-(3-chloro-4-fluorophenyl)-7-(2-(3,3-dilfuoroazetidin-1-yl)-2-oxoethyl)-3-methylimidazo[1,5-a]pyrazin-8(7H)-one]", "Response Recovered (%)": 7.3}, {"smiles": "CCC1(F)CN(C(=O)Cn2ccn3c(C)nc(-c4ccc(F)c(Cl)c4)c3c2=O)C1", "note": "[Example 431, 1-(3-chloro-4-fluorophenyl)-7-(2-(3-ethyl-3-fluoroazetidin-1-yl)-2-oxoethyl)-3-methylimidazo[1,5-a]pyrazin-8(7H)-one]", "Response Recovered (%)": "−3.9"}]}]}
